Results as given in PMC5643462, “Encrypted Antimicrobial Peptides from Plant Proteins” (Scientific Reports, 2017).
Like-named read-outs stand apart in the source and are kept apart here. No end group written: not given here.

What was measured:
human red blood cells = experiment: Cytotoxicity: hemolysis of human red blood cells; assay type: cell-based
Method: The cytotoxicity of the selected IAPS was performed using human red blood cells in strict accordance with relevant guidelines and regulations (Ethical committee – UnB # 1.939.989). Different concentrations of IAPs (128 µM–0.5 µM) were incubated with a final concentration of 2.5 × 10^5 red blood cells.mL^−1. Briefly, 100 µL of red blood cells was incubated with 100 µL of different concentrations of each IAP, prepared in PBS, for 30 minutes at 37 °C, with constant shaking at 120 rpm. PBS and Triton X-100 0.1% (v/v) were used as negative and positive controls, respectively. After incubation, the solution was centrifuged at 900 × g for five minutes followed by transferring 50 µL of the supernatant to flat-bottom polystyrene 96-well micro plates containing 50 µL of PBS. Microplate reading was performed at a BioTek Multireader, using a wavelength of 540 nm. All tests were performed in 3 biological replicates, composed of 3 biological repetitions each. The obtained data was subtracted by the negative control and relative to the positive control, defined as 100% lysis.

[1] = test system: Moniliophthora perniciosa basidiospores; experiment: Inhibition of M. perniciosa basidiospore germination; assay type: cell-based; settings: 1 × 10^6 basidiospores mL^−1, one hour with peptide (256-0.5 µM), 24 °C, counted after 4 hours on agar slides, biological triplicates; for IC50: concentration at which at least 50% of basidiospores germination was inhibited, read-out: Inhibitory concentration IC50, M. perniciosa basidiospores germination; for Inhibitory concentration IC95, M. perniciosa basidiospores germination: concentration at which at least 95% of basidiospores germination was inhibited
Method: The antimicrobial potential of T. cacao IAPs for inhibiting M. perniciosa basidiospores was evaluated. Briefly, 1 × 10^6 basidiospores mL^−1 were incubated for one hour with different concentrations of T. cacao IAPs (256-0.5 µM), at 24 °C, in a final volume of 100 µL. Autoclaved dH20 was used as a control. After incubation, 3 droplets of 10 µL each were placed in a slide coated with agar (1.2% (w/v)). Slides were incubated for 4, 24 and 48 hours at 24 °C. Slides were visualized using a DMRXA light microscope (Leica). Approximately 150–200 basidiospores per droplet from each time point were counted and compared to the control condition, which was defined as 100% germination. All experiments were performed in biological triplicates, with 3 technical repetitions each.

[2] = Far-UV circular dichroism, helix percentage in buffer and with LUVs; assay type: physicochemical; settings: room temperature, from [θ]222 nm, * = β-sheet structure; for %Hel 2:1 DMPC/DMPG: 40 μM peptide + 2 mM 2:1 DMPC:DMPG LUVs (50 fold excess); for %Hel 2:1 DMPC/DMPG / %Hel DMPC: pH 7.4 buffer; for %Hel DMPC: 40 μM peptide + 2 mM DMPC LUVs (50 fold excess); for %Hel buffer: 40 μM peptide in 20 mM sodium phosphate, 150 mM NaCl, pH 7.4
Method: DMPC and 2:1 DMPC:DMPG (w/w) were dissolved in chloroform and methanol (3:1 v/v) at 10 mg/mL, dried using a rotary evaporator and left 3 hours under high vacuum in a freeze dryer. Phospholipids were then dissolved in 20 mM Sodium phosphate – NaOH, 150 mM NaCl, pH 7.4 and hand-shaken until the formation of a cloudy solution, which was passed 19 times through a 100 nm polycarbonate membrane at 30 °C for the formation of large unilamelar vesicles (LUVs) using a mini-extruder (Avanti Polar Lipids). Phospholipid concentration was estimated according to the ammonium ferrothiocyanate method.
Experiments were conducted on a Jasco-J815 spectropolarimeter (Jasco International Co.). Spectra were acquired at room temperature from 200 to 260 nm as an average of 4 readings using a 0.1 cm path length cell, data pitch of 0.2 nm and a response time of 0.5 s. Data Scans of buffer and 2 mM DMPC and 2:1 DMPC:DMPG LUVs solutions were acquired and subtracted from each peptide data. Peptides were scanned at a concentration of 40 μM in buffer and then 50 fold excess of DMPC and 2:1 DMPC:DMPG LUVs were added, resulting in a molar ratio of 0.02 peptide/phospholipid. The spectra were converted to mean residue ellipticity and readings at [θ]222 nm were used to estimate helix percentages.

[3] = SC50 = IAP concentration that at least 50% of red blood cells remain intact, 128 µM–0.5 µM tested, PBS, 30 minutes, 37 °C, absorbance 540 nm

Substance | Hemolytic activity (% ± SD) at 1 µM (human red blood cells) [%] | Hemolytic activity (% ± SD) at 2 µM (human red blood cells) [%] | Hemolytic activity (% ± SD) at 4 µM (human red blood cells) [%] | Hemolytic activity (% ± SD) at 8 µM (human red blood cells) | Hemolytic activity (% ± SD) at 16 µM (human red blood cells) [%] | Hemolytic activity (% ± SD) at 32 µM (human red blood cells) [%] | Hemolytic activity (% ± SD) at 64 µM (human red blood cells) | Hemolytic activity (% ± SD) at 128 µM (human red blood cells) [%] | Hemolytic activity of human red blood cells (%) SC50 (human red blood cells) [µM] | IC50 [1] [µM] | Inhibitory concentration IC95, M. perniciosa basidiospores germination [1] [µM] | Hemolytic activity of human red blood cells (%) SC50 (human red blood cells; [3]) [µM] | %Hel 2:1 DMPC/DMPG [2] [%] | %Hel DMPC [2] [%] | %Hel buffer [2] [%] | Concentration that induced 50% hemolysis (human red blood cells; red cells of human) [µM]
FFYNVIKIYGNMAGRISK-NH2 [Cs03] | 0.00 ± 0.00 | 0.02 ± 0.00 | 0.01 ± 0.00 | 0.00 ± 0.00% | 0.21 ± 0.05 | 0.99 ± 0.34 | 4.11 ± 1.22% | 14.51 ± 1.55 | >128 | – | – | – | – | – | – | –
IKLRNVLKYLFRIDVIKEDIL-NH2 [Tc03] | 0.03 ± 0.00 | 0.04 ± 0.03 | 0.00 ± 0.00 | 0.17 ± 0.04% | 0.09 ± 0.01 | 0.67 ± 0.30 | 2.29 ± 1.18% | 7.89 ± 1.44 | >128 | – | – | – | – | – | – | –
GFKDLLKGAAKALVKTVLF-NH2 [Asc-8, Ascaphin-8, reference compound] | 0.00 ± 0.00 | 0.32 ± 0.1 | 0.26 ± 0.2 | 14.72 ± 0 .79% | 28.10 ± 4.76 | 54.35 ± 4.5 | 91.90 ± 6.36% | 101.56 ± 9.52 | 16 | 8 | 16 | – | – | – | – | –
GSLHGFMYKYLKNMVLNLF-NH2 [Tc06] | 0.00 ± 0.00 | 0.00 ± 0.00 | 0.00 ± 0.00 | 0.00 ± 0.00% | 0.01 ± 0.00 | 0.77 ± 0.23 | 1.18 ± 0.23% | 7.67 ± 1.69 | >128 | 32 | 64 | – | – | – | – | –
GLWSTIKQKGKEAAIAAAKAAGQAALGAL-NH2 [DS01, Dermaseptin DS01, reference compound] | 0.00 ± 0.00 | 0.19 ± 0.02 | 0.17 ± 0.04 | 0.03 ± 0.01% | 0.48 ± 0.12 | 0.79 ± 0.30 | 3.70 ± 1.34% | – | – | 128 | 256 | >128 | – | – | – | –
VALRLAKEVIKVQQGW [Tc01, IAP from Theobroma cacao, Embryo defective 1381 isoform 2] | – | – | – | – | – | – | – | – | – | – | – | – | 64.8 | 4.5 | 5.0 | –
GAKLAKKQVRALGKFFSF-NH2 [At03] | 0.00 ± 0.00 | 0.00 ± 0.00 | 0.04 ± 0.01 | 0.02 ± 0.00% | 0.00 ± 0.00 | 0.03 ± 0.00 | 0.17 ± 0.08% | 0.34 ± 0.11 | >128 | – | – | – | – | – | – | –
LHRLVKLVAALLRGYASKVDTH [Tc08] | 0.11 ± 0.04 | 0.11 ± 0.09 | 0.27 ± 0.10 | 0.30 ± 0.05% | 2.00 ± 1.13 | 15.47 ± 1.58 | 28.81 ± 2.6 7% | – | – | – | – | >128 | – | – | – | –
LLDKLKRTLLSIEAVLI [Tc11, IAP from Theobroma cacao, LRR and NB-ARC domains-containing disease resistance protein] | – | – | – | – | – | – | – | – | – | – | – | – | 56.7 | 57.0 | 45.8 | –
GSLHGFMYKYLKNMVLTLF-NH2 [At01] | 0.00 ± 0.00 | 0.00 ± 0.00 | 0.00 ± 0.00 | 0.00 ± 0.00% | 0.19 ± 0.01 | 1.05 ± 0.22 | 5.04 ± 2.39% | 14.6 ± 2.14 | >128 | – | – | – | – | – | – | –
LIKVVNHVQYNVTLHWHGIR [Tc07, IAP from Theobroma cacao, Laccase 17] | – | – | – | – | – | – | – | – | – | – | – | – | 19.9 | 17.1 | 23.5 | –
GLYNFIKVLGRTVFGLYKQF-NH2 [At04] | 0.00 ± 0.00 | 0.00 ± 0.00 | 0.00 ± 0.00 | 0.09 ± 0.04% | 0.40 ± 0.10 | 0.91 ± 0.20 | 4.12 ± 1.41% | 13.8 ± 2.41 | >128 | – | – | – | – | – | – | –
GIVLKDLFSEKLRRYKIVIG [Tc09, IAP from Theobroma cacao, NB-ARC domain-containing disease resistance protein, putative] | – | – | – | – | – | – | – | – | – | – | – | – | 0.0 | 19.3 | 12.3 | –
KVLSKVHTLLKAVLAL-NH2 [At02] | 0.04 ± 0.00 | 0.03 ± 0.00 | 0.02 ± 0.00 | 0.00 ± 0.00% | 0.30 ± 0.16 | 2.41 ± 0.98 | 10.28 ± 4.3% | 23.10 ± 3.41 | >128 | – | – | – | – | – | – | –
ANRLLEAYKMLLKFLGNLR-NH2 [Gr02] | 0.01 ± 0.01 | 0.38 ± 0.09 | 1.23 ± 0.05 | 4.19 ± 0.78% | 7.01 ± 3.48 | 28.33 ± 4.77 | 46.44 ± 7.63% | 68.42 ± 5.45 | 64 | – | – | – | – | – | – | 64
RVLKDVESALRESVANWKIVIG [Tc04, IAP from Theobroma cacao, Purple acid phosphatase 3] | – | – | – | – | – | – | – | – | – | – | – | – | 36.3 | 15.8 | 14.3 | –
